Measured values from paper PMC4264242, “Androgen Receptor Antagonists and Anti-Prostate Cancer Activities of Some Newly Synthesized Substituted Fused Pyrazolo-, Triazolo- and Thiazolo-Pyrimidine Derivatives” (International Journal of Molecular Sciences, 2014).
Entries after “also recorded” stand apart in the source; their conditions may differ.

How the values were obtained:
mutant AR in LNCaP cells = biological target: T1, mutant AR in LNCaP cells (Homo sapiens, UniProt P10275, T878A); test: Anti-prostate cancer screening, anti-androgenic bioassay (AR transactivation) in LNCaP cells; assay type: cell-based; conditions: 1 nM DHT, 24 h
T1 construct: endogenous in cells; host or cells: LNCaP cells (only reporter plasmids transfected)
T1 sequence (P10275 1-920 T878A): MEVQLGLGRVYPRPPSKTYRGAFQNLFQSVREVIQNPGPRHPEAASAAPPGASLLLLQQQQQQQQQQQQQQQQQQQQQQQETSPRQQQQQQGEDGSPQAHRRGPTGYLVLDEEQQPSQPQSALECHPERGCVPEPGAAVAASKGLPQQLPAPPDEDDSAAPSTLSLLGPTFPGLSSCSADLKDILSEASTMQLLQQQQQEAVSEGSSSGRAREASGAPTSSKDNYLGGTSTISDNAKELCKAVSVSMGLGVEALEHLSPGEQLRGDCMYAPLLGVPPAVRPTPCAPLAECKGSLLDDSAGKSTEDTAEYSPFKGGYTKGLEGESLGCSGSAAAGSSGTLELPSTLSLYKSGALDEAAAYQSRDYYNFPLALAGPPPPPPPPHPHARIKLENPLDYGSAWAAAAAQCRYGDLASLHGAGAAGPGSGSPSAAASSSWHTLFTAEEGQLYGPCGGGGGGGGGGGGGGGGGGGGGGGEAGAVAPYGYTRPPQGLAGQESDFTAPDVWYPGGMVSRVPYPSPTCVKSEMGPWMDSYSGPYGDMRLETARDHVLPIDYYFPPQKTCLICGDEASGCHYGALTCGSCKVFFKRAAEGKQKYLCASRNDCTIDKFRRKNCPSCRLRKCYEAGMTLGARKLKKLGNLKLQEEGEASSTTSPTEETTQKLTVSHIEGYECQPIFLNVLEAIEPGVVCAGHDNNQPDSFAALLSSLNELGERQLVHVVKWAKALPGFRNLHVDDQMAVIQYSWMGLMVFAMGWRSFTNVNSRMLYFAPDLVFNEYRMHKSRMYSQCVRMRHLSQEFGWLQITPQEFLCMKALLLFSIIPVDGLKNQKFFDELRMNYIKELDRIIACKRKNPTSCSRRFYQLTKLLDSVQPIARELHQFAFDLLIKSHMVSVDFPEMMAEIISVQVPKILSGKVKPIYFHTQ
Method: Human prostate cancer LNCaP and PC-3 cells were maintained in RPMI medium and Dulbecco’s minimum essential medium (DMEM), respectively. Both media were supplemented with penicillin (25 units/mL), streptomycin ([…]), and 10% fetal calf serum. For the androgen receptor transactivation assay, an androgen-dependent reporter gene transcription test was employed as the primary screening for potential anti-androgen identification. This assay was first performed in LNCaP cells, which express a clinically relevant mutant AR. […] Wild type AR transactivation assay was performed in PC-3 host cells, which lack an endogenous, functional AR. The method and conditions of cell and gene transfection have been described previously. In brief, cells were plated in 24-well tissue culture dishes for 24 (PC-3 cells) or 48 (LNCaP cells) h prior to transfection. Subsequently, LNCaP cells were transfected with a reporter gene, MMTV-luciferase, which contains a MMTV-long terminal repeat (LTR) promoter and an androgen receptor binding element, and Renilla Luciferase Control Reporter Vectors 40 (PRL-SV40), which served as an internal control for transfection efficiency. PC-3 cells were transfected with a wild type AR expression plasmid, plasmide gene-5 androgen recptor (pSG5AR), in addition to the above-mentioned MMTV-luciferase reporter gene and PRL-SV40 internal control. SuperFect (Qiagen, Chatsworth, CA, USA) was employed as the transfection reagent following the manufacturer’s recommendations. At the end of a 5-h transfection, the medium was changed to DMEM or RPMI supplemented with 10% charcoal dextran-stripped, i.e., androgen-depleted, serum. After 24 h, the cells were treated with 1 nM of DHT and/or test compounds at the designated concentrations.
After 24 h the cells were harvested for luciferase activity assay using the Dual Luciferase Assay System (Promega, Madison, WI, USA.). The derived data was expressed as relative luciferase activity normalized to the internal luciferase control.

castrated immature rats = test: In vivo anti-androgenic activity in castrated immature rats treated with testosterone propionate; design: species or system rat; conditions: for ED50: Rattus norvegicus, read-out: ED50, in vivo anti-androgen activity; for % (Inhibition), in vivo anti-androgen activity: inhibition of TP effect (TP 0.5 mg/kg s.c. once daily for 5 days), tested compound 10-30 mg/kg p.o.
Description: […] male Wistar rats were obtained from the Animal House Colony, Research Institute of Ophthalmology, Giza, Egypt. Prepubertal male rats aged 3 weeks were castrated using the scrotal route under ether anesthesia.

Compound	IC50 (mutant AR in LNCaP cells) [nM]	ED50 (castrated immature rats) [mg/kg]	% (Inhibition), in vivo anti-androgen activity (castrated immature rats)	IC50 LNCaP, anti-prostate cancer activity (mutant AR in LNCaP cells)	ED50, in vivo anti-androgen activity (castrated immature rats; castrated immature rats, TP 0.5 mg/kg s.c., compound p.o.)	% (Inhibition), in vivo anti-androgen activity (castrated immature rats; listed as compound 1)
N=c1c2cnn(-c3nc4c(ccc5ccccc54)s3)c2ncn1NC(=O)c1ccccc1 [Compound 11]	61.6	0.045	90.01%			
NNc1nc2c(ccc3ccccc32)s1 [Compound 1, 1-(naphtho[1,2-d]thiazol-2-yl)hydrazine]			Inactive	devoid from any activities; also recorded: Inactive	Inactive	devoid from any activities
N#Cc1cnn(-c2nc3c(ccc4ccccc43)s2)c1N [Compound 2, 2-[3-Amino-4-cyanopyrazol-2-yl]naphthalino[1,2-d]thiazole]	51.5	0.049	95.49%			
N=c1sc(=S)[nH]c2c1cnn2-c1nc2c(ccc3ccccc32)s1 [Compound 6, 2-[6-Imino-3H-4-thiothiazino[4,5-c]pyrazol-2-yl]naphthalino[1,2-d]thiazole]	72.4	0.092	88.76%			
CCOC1SCC2NC(=O)c3cnn(-c4nc5c(ccc6ccccc65)s4)c3N21 (stereo not shown) [Compound 13, 2-[3-Ethoxy-5-dihydro-6H-7-oxo-[1,3]thiazolo[3,4-b]pyrimidino[4,5-c]pyrazol-2-yl]naphthalino[1,2-d]thiazole]	49.6	0.047	97.56%			
Nc1nc(=S)[nH]c2c1cnn2-c1nc2c(ccc3ccccc32)s1 [Compound 5, 2-[6-Amino-3H-4-thiopyrimidino[4,5-c]pyrazol-2-yl]naphthalino[1,2-d]thiazole]	64.3	0.089	89.09%			
CCOC1SCC(=O)N1c1c(C#N)cnn1-c1nc2c(ccc3ccccc32)s1 (stereo not shown) [Compound 12, 2-[3-(2-Ethoxy-4-oxo-5-dihydro-1,3-thiazol-3-yl)-4-cyanopyrazol-2-yl]-naphthalino[1,2-d]thiazole]	80	0.098	84.65%			
CCO/C=N\c1c(C#N)cnn1-c1nc2c(ccc3ccccc32)s1 [Compound 8, 2-[3-Ethylimidoformat-4-cyanopyrazol-2-yl]naphthalino[1,2-d]thiazole]	78.5	0.097	85.43%			
Nc1ncnc2c1cnn2-c1nc2c(ccc3ccccc32)s1 [Compound 3]	58.6	0.063	91%			
Cc1nc2c3cnn(-c4nc5c(ccc6ccccc65)s4)c3ncn2n1 [Compound 10, 2-[6-Methyl[1,2,4]triazolo[2,3-c]pyrimidino[6,5-c]pyrazol-2-yl]naphthalino[1,2-d]thiazole]	43.5	0.071	98.87%			
N#Cc1cnn(-c2nc3c(ccc4ccccc43)s2)c1/N=C\NN [Compound 9, 2-[3-Imidoformic hydrazido-4-cyanopyrazol-2-yl]naphthalino[1,2-d]thiazole]	76.6	0.095	86.56%			
Nc1n[nH]c2c1cnn2-c1nc2c(ccc3ccccc32)s1 [Compound 4]	56.6	0.051	93.98%			
